Drawing on patent EP4104902B1, “COMPOUNDS AND M[…] SAME” (priority 2020, dated 2021), this text covers IC50 for 49 compounds.

SMILES strings stand for the structures. Where two headings read alike, the source gives them in different places.

The test system of this experiment is recombinant rabies virus 1088 strain expressing Gaussia Luciferase (GLuc) (1088/GLuc). It counts as cell-based.

For `CC(C)CNC(=O)[C@]12NC[C@@H]3C[C@H]1CN(CC(C)C)[C@H]2[C@@H]3Cc1ccccc1` (relative stereo) [IB-3], the IC50 is 10 to 30 µM (read-out: Anti-rabies activity) and 19.6 µM (read-out: IC50).
For `CC(C)CNC(=O)[C@]12NC[C@@H]3C[C@H]1CN(Cc1ccccc1)[C@H]2[C@@H]3CC(C)C` (relative stereo) [IB-4] the same measures were 10 to 30 µM and 19.2 µM.
`CC(C)C[C@@H]1[C@@H]2CN[C@@]3(C(=O)NCc4ccccc4)[C@@H](C2)CN(CC(C)C)[C@@H]13` (relative stereo) [IB-5]: the IC50 (read-out: Anti-rabies activity) lay within 10 to 30 µM and the IC50 (read-out: IC50) is 18.2 µM.
Turning to `CC(C)CCN1C[C@@H]2C[C@H]3CN[C@]2(C(=O)NCc2ccccc2)[C@@H]1[C@@H]3Cc1ccccc1` (relative stereo) [IB-9], the IC50 is, setting by setting: (read-out: Anti-rabies activity) 10 to 30 µM; (read-out: IC50) 17 µM.
`CC(C)CN1C[C@@H]2C[C@H]3CN[C@]2(C(=O)NCCc2ccccc2)[C@@H]1[C@@H]3Cc1ccccc1` (relative stereo) [IB-12]: the IC50 was 10 to 30 µM (read-out: Anti-rabies activity) and 15.5 µM (read-out: IC50).
The like results for `Cc1cccc(C[C@@H]2[C@@H]3CN[C@@]4(C(=O)NCc5ccccc5)[C@@H](C3)CN(CC(C)C)[C@@H]24)c1` (relative stereo) [IB-13] were, in that order, 10 to 30 µM and 14.3 µM.
On to `Cc1cccc(CNC(=O)[C@]23NC[C@@H]4C[C@H]2CN(CC(C)C)[C@H]3[C@@H]4Cc2ccccc2)c1` (relative stereo) [IB-15], for which the IC50 is 10 to 30 µM (read-out: Anti-rabies activity) and 15.9 µM (read-out: IC50).
`O=C(NCc1ccccc1)[C@]12NC[C@H]3C[C@H]1CN(Cc1cccc4ccccc14)[C@H]2[C@@H]3Cc1ccccc1` (relative stereo) [IB-42, (3S*,3aS*,6S*,7R*,7aS*)-N,7-dibenzyl-1-(naphthalen-1-ylmethyl)octahydro-3aH-3,6-methanopyrrolo[3,2-b]pyridine-3a-carboxamide]: the IC50 (read-out: Anti-rabies activity) was 10 to 30 µM.
As to `CC(C)C[C@@H]1[C@@H]2CN[C@@]3(C(=O)NCc4cccc5ccccc45)[C@@H](C2)CN(CC(N)=O)[C@@H]13` (relative stereo) [IB-81], for the setting “read-out: Anti-rabies activity”, the IC50 was 10 to 30 µM.
Consider `NC(=O)CN1C[C@@H]2C[C@H]3CN[C@]2(C(=O)NCc2cccc4ccccc24)[C@@H]1[C@@H]3Cc1ccccc1` (relative stereo) [IB-82], for which the IC50 (read-out: Anti-rabies activity) is 10 to 30 µM.
On to `NC(=O)CN1C[C@@H]2C[C@H]3CN[C@]2(C(=O)NCc2cccc4ccccc24)[C@@H]1[C@@H]3Cc1ccc(O)cc1` (relative stereo) [IB-83], for which, under “read-out: Anti-rabies activity”, the IC50 was 10 to 30 µM.
As for `CC(C)CC[C@@H]1[C@@H]2CN[C@@]3(C(=O)NCc4cccc5ccccc45)[C@@H](C2)CN(CC(N)=O)[C@@H]13` (relative stereo) [IB-84], the IC50 (read-out: Anti-rabies activity) was 10 to 30 µM.
On to `CC(C)CC[C@@H]1[C@@H]2CN[C@@]3(C(=O)NCCc4ccccc4)[C@@H](C2)CN(CC(N)=O)[C@@H]13` (relative stereo) [IB-89], for which the IC50 (read-out: Anti-rabies activity) was < 5 µM.
Regarding `NC(=O)CN1C[C@@H]2C[C@H]3CN[C@]2(C(=O)NCc2cccc4ccccc24)[C@@H]1[C@@H]3Cc1cccc2ccccc12` (relative stereo) [IB-90], the IC50 (read-out: Anti-rabies activity) is < 5 µM.
In the case of `NC(=O)CN1C[C@@H]2C[C@H]3CN[C@]2(C(=O)NCc2ccc(F)cc2)[C@@H]1[C@@H]3Cc1ccccc1` (relative stereo) [IB-92], the IC50 (read-out: Anti-rabies activity) was 10 to 30 µM.
Still for that read-out and setting: the value for `NC(=O)CN1C[C@@H]2C[C@H]3CN[C@]2(C(=O)NCc2ccc(F)cc2)[C@@H]1[C@@H]3CCc1ccccc1` (relative stereo) [IB-95] was < 5 µM.
The same measure, in the same setting: under `NC(=O)CN1C[C@@H]2C[C@H]3CN[C@]2(C(=O)NCc2ccc(F)cc2)[C@@H]1[C@@H]3Cc1cccc2ccccc12` (relative stereo) [IB-96] stands 10 to 30 µM; under `NC(=O)CN1C[C@@H]2C[C@H]3CN[C@]2(C(=O)NCCc2ccccc2)[C@@H]1[C@@H]3Cc1cccc2ccccc12` (relative stereo) [IB-97], < 5 µM; under `CC(C)CCNC(=O)[C@]12NC[C@@H]3C[C@H]1CN(CC(N)=O)[C@H]2[C@@H]3CCc1ccccc1` (relative stereo) [IB-102], < 5 µM.
As for `CC(C)CCNC(=O)[C@]12NC[C@@H]3C[C@H]1CN(CC(N)=O)[C@H]2[C@@H]3Cc1cccc2ccccc12` (relative stereo) [IB-103], the IC50 (read-out: Anti-rabies activity) lay within 10 to 30 µM.
On the same count and under the same terms, the value for `CCCCCCNC(=O)[C@]12NC[C@@H]3C[C@H]1CN(CC(N)=O)[C@H]2[C@@H]3Cc1ccccc1` (relative stereo) [IB-105] was 10 to 30 µM; that for `CC(C)C[C@@H]1[C@@H]2CN[C@@]3(C(=O)NCc4cccc5ccccc45)[C@@H](C2)CN(CCCNC(=N)N)[C@@H]13` (relative stereo) [IB-164, (3S*, 3aS*, 6R*, 7R*, 7aS*)-1-(3-guanidinopropyl)-7-isobutyl-N-(naphthalen-1-ylmethyl)octahydro-3aH-3,6-methanopyrrolo[3,2-b]pyridine-3a-carboxamide] was < 5 µM; that for `CCCCCCNC(=O)[C@]12NC[C@@H]3C[C@H]1CN(CCCNC(=N)N)[C@H]2[C@@H]3CCc1ccccc1` (relative stereo) [IB-174] was 10 to 30 µM.
With `CC(C)C[C@@H]1[C@@H]2CN[C@@]3(C(=O)NC(C)C)[C@@H](C2)CN(CCCNC(=N)N)[C@@H]13` (relative stereo) [IB-176], the IC50 (read-out: Anti-rabies activity) is 10 to 30 µM.
The same measure, in the same setting: the value for `CC(C)NC(=O)[C@]12NC[C@@H]3C[C@H]1CN(CCCNC(=N)N)[C@H]2[C@@H]3CCc1ccccc1` (relative stereo) [IB-179] was 10 to 30 µM.
Take `N=C(N)NCCCN1C[C@@H]2C[C@H]3CN[C@]2(C(=O)NCc2ccc(F)cc2)[C@@H]1[C@@H]3Cc1ccccc1` (relative stereo) [IB-182]: the IC50 (read-out: Anti-rabies activity) lay within 10 to 30 µM.
As for `CC(C)CNC(=O)[C@]12NC[C@@H]3C[C@H]1CN(CC(C)C)[C@H]2[C@@H]3CCCNC(=N)N` (relative stereo) [IB-187], the IC50 (read-out: Anti-rabies activity) lay in the range of 10 to 30 µM.
Take `CC(C)CCNC(=O)[C@]12NC[C@@H]3C[C@H]1CN(CC(C)C)[C@H]2[C@@H]3CCCNC(=N)N` (relative stereo) [IB-192]: the IC50 (read-out: Anti-rabies activity) is < 5 µM.
As for `CC(C)CNC(=O)[C@]12NC[C@@H]3C[C@H]1CN(Cc1ccccc1)[C@H]2[C@@H]3CCCNC(=N)N` (relative stereo) [IB-198], the IC50 (read-out: Anti-rabies activity) lay within 10 to 30 µM.
`N=C(N)NCCC[C@@H]1[C@@H]2CN[C@@]3(C(=O)NCCc4ccccc4)[C@@H](C2)CN(Cc2ccccc2)[C@@H]13` (relative stereo) [IB-247]: for the setting “read-out: Anti-rabies activity”, the IC50 is 10 to 30 µM.
As to `CCCCCCNC(=O)[C@]12NC[C@@H]3C[C@H]1CN(Cc1ccccc1)[C@H]2[C@@H]3CCCNC(=N)N` (relative stereo) [IB-249], under “read-out: Anti-rabies activity”, the IC50 was in the range of 10 to 30 µM.
Consider `N=C(N)NCCC[C@@H]1[C@@H]2CN[C@@]3(C(=O)NCc4ccc(F)cc4)[C@@H](C2)CN(Cc2ccccc2)[C@@H]13` (relative stereo) [IB-250], for which the IC50 (read-out: Anti-rabies activity) lay in the range of 10 to 30 µM.
The same measure, in the same setting: the value for `CCCCCCNC(=O)[C@]12NC[C@@H]3C[C@H]1CN(CCc1ccccc1)[C@H]2[C@@H]3CCCNC(=N)N` (relative stereo) [IB-256] was 10 to 30 µM; that for `N=C(N)NCCC[C@@H]1[C@@H]2CN[C@@]3(C(=O)NCc4ccccc4)[C@@H](C2)CN(Cc2ccc(F)cc2)[C@@H]13` (relative stereo) [IB-260] was 10 to 30 µM.
Take `N=C(N)NCCC[C@@H]1[C@@H]2CN[C@@]3(C(=O)NCCc4ccccc4)[C@@H](C2)CN(Cc2ccc(F)cc2)[C@@H]13` (relative stereo) [IB-262]: the IC50 (read-out: Anti-rabies activity) lay within 10 to 30 µM.
On to `CC(C)CC[C@@H]1[C@@H]2CN[C@@]3(C(=O)NCCC(N)=O)[C@@H](C2)CN(Cc2ccccc2)[C@@H]13` (relative stereo) [IB-274], for which, where the note is “read-out: Anti-rabies activity”, the IC50 lay within 10 to 30 µM.
Regarding `N=C(N)NCCCNC(=O)[C@]12NC[C@@H]3C[C@H]1CN(Cc1ccccc1)[C@H]2[C@@H]3Cc1ccccc1` (relative stereo) [IB-276], where the note is “read-out: Anti-rabies activity”, the IC50 lay in the range of 10 to 30 µM.
Turning to `N=C(N)NCCCNC(=O)[C@]12NC[C@@H]3C[C@H]1CN(Cc1ccccc1)[C@H]2[C@@H]3CCc1ccccc1` (relative stereo) [IB-279], where the note is “read-out: Anti-rabies activity”, the IC50 lay in the range of 10 to 30 µM.
The same measure, in the same setting: under `N=C(N)NCCCNC(=O)[C@]12NC[C@@H]3C[C@H]1CN(Cc1ccccc1)[C@H]2[C@@H]3Cc1cccc2ccccc12` (relative stereo) [IB-280] stands 10 to 30 µM; under `N=C(N)NCCCN1C[C@@H]2C[C@H]3CN[C@]2(C(=O)NCc2ccccc2)[C@@H]1[C@@H]3Cc1cccc2ccccc12` (relative stereo) [IB-300], 10 to 30 µM; under `N=C(N)NCCCN1C[C@@H]2C[C@H]3CN[C@]2(C(=O)NCCc2ccccc2)[C@@H]1[C@@H]3Cc1cccc2ccccc12` (relative stereo) [IB-327], 10 to 30 µM.
Turning to `CC(C)CC[C@@H]1[C@@H]2CN[C@@]3(C(=O)NCCC(N)=O)[C@@H](C2)CN(CCc2ccccc2)[C@@H]13` (relative stereo) [IB-342], the IC50 (read-out: Anti-rabies activity) lay in the range of 10 to 30 µM.
Consider `N=C(N)NCCCNC(=O)[C@]12NC[C@@H]3C[C@H]1CN(CCc1ccccc1)[C@H]2[C@@H]3Cc1ccccc1` (relative stereo) [IB-344], for which, for the setting “read-out: Anti-rabies activity”, the IC50 lay in the range of 10 to 30 µM.
Take `CC(C)CC[C@@H]1[C@@H]2CN[C@@]3(C(=O)NCCCNC(=N)N)[C@@H](C2)CN(CCc2ccccc2)[C@@H]13` (relative stereo) [IB-346]: under “read-out: Anti-rabies activity”, the IC50 fell in the range of 10 to 30 µM.
With `N=C(N)NCCCNC(=O)[C@]12NC[C@@H]3C[C@H]1CN(CCc1ccccc1)[C@H]2[C@@H]3Cc1cccc2ccccc12` (relative stereo) [IB-347], the IC50 (read-out: Anti-rabies activity) lay within 10 to 30 µM.
On to `CC(C)CC[C@@H]1[C@@H]2CN[C@@]3(C(=O)NCCC(N)=O)[C@@H](C2)CN(Cc2cccc4ccccc24)[C@@H]13` (relative stereo) [IB-349], for which the IC50 (read-out: Anti-rabies activity) is < 5 µM.
`CC(C)C[C@@H]1[C@@H]2CN[C@@]3(C(=O)NCCCNC(=N)N)[C@@H](C2)CN(Cc2cccc4ccccc24)[C@@H]13` (relative stereo) [IB-350]: where the note is “read-out: Anti-rabies activity”, the IC50 lay within 10 to 30 µM.
Turning to `N=C(N)NCCCNC(=O)[C@]12NC[C@@H]3C[C@H]1CN(Cc1cccc4ccccc14)[C@H]2[C@@H]3Cc1ccccc1` (relative stereo) [IB-351], the IC50 (read-out: Anti-rabies activity) is 10 to 30 µM.
Regarding `CC(C)CC[C@@H]1[C@@H]2CN[C@@]3(C(=O)NCCCNC(=N)N)[C@@H](C2)CN(Cc2cccc4ccccc24)[C@@H]13` (relative stereo) [IB-353], the IC50 (read-out: Anti-rabies activity) was < 5 µM.
